According to PubChem BioAssay (NCI):
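Values below derive from 48-hour exposures of cells grown in 96-well plates, with endpoints linearly interpolated between the two concentrations bracketing the appropriate inhibition level. Here, GI50 denotes the concentration required for 50% inhibition of growth. TGI: total growth inhibition.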

Columns and labels:
Experiment in all cases: DTP human tumour cell line panel, 48 h
CAKI-1 renal = test system: CAKI-1 renal
CCRF-CEM leukemia = test system: CCRF-CEM leukemia
HCT-15 colon = test system: HCT-15 colon
KM12 colon = test system: KM12 colon
OVCAR-8 ovarian = test system: OVCAR-8 ovarian
SF-268 CNS = test system: SF-268 CNS
SK-MEL-5 melanoma = test system: SK-MEL-5 melanoma
SNB-19 CNS = test system: SNB-19 CNS
SW-620 colon = test system: SW-620 colon

| SMILES | GI50 (CAKI-1 renal) | TGI (CAKI-1 renal) | GI50 (CCRF-CEM leukemia) | TGI (CCRF-CEM leukemia) | GI50 (HCT-15 colon) | TGI (HCT-15 colon) | GI50 (KM12 colon) | TGI (KM12 colon) | GI50 (OVCAR-8 ovarian) | TGI (OVCAR-8 ovarian) | GI50 (SF-268 CNS) | TGI (SF-268 CNS) | GI50 (SK-MEL-5 melanoma) | TGI (SK-MEL-5 melanoma) | TGI (SNB-19 CNS) | GI50 (SW-620 colon) | TGI (SW-620 colon) | GI50 (SNB-19 CNS) |
| --- | --- | --- | --- | --- | --- | --- | --- | --- | --- | --- | --- | --- | --- | --- | --- | --- | --- | --- |
| COc1ccc(-c2cc(-c3ccc(Nc4nc(Nc5ccc(Cl)cc5)nc(Nc5ccc(Cl)cc5)n4)cc3)nc(N)c2C#N)cc1 | 1470 nM | 4.38 µM | 929 nM | > 27.6 µM | 1540 nM | 5.24 µM | 1950 nM | 4.24 µM | 2.12 µM | > 51.2 µM | 2.88 µM | 8.38 µM | 1780 nM | 3.65 µM | > 24.1 µM | 666 nM | 1.37 µM |  |
| CCOC(=O)c1cccc(=O)c(C(=O)OCC)c1 |  | > 100 µM |  | 65.9 µM |  | > 100 µM |  | > 100 µM |  | > 100 µM |  |  |  | > 100 µM |  |  | > 100 µM |  |
| O=C(Nc1n[nH]c2nc(-c3ccco3)c(Br)cc12)C1CC1 | > 25000 nM | > 25 µM | > 21700 nM | > 25 µM | > 25000 nM | > 25 µM | > 25000 nM | > 25 µM | > 25 µM | > 25 µM | > 25 µM | > 25 µM | > 16400 nM | > 25 µM | > 25 µM | > 25000 nM | > 25 µM | > 25 µM |
| COc1cccc(NC(=O)c2sc3nc4c(cc3c2N)CCCC4)c1 | 503 nM | 66.3 µM | 347 nM | 19.2 µM | 387 nM | > 100 µM | 414 nM | > 100 µM | 2.58 µM | > 100 µM | 0.714 µM | 37 µM | 303 nM | 2.67 µM | 53.5 µM | 450 nM | > 100 µM | 0.813 µM |
| N#Cc1ccccc1NC(=O)C(=O)C(C(=O)c1ccccc1-c1ccccc1)C1OC(=O)c2ccccc21 (configuration not stated) |  |  |  | > 100 µM |  |  |  | 41.3 µM |  | > 100 µM |  | 38.8 µM |  | > 100 µM |  |  | 75.5 µM |  |
| Cc1ccc(S(=O)(=O)N2CCCSCCSCCCSCC2)cc1 |  |  |  | > 100 µM |  | > 100 µM |  | > 100 µM |  | > 100 µM |  | > 100 µM |  | > 100 µM | > 100 µM |  | > 100 µM |  |
| O=C1C2CC(Cl)C(SSC3CC4C(=O)N(SC(Cl)(Cl)C(Cl)Cl)C(=O)C4CC3Cl)CC2C(=O)N1SC(Cl)(Cl)C(Cl)Cl (configuration not stated) |  | 6.7 µM |  |  |  |  |  | > 51 µM |  | 3.5 µM |  | 3.91 µM |  | 4.55 µM | 12.7 µM |  | 5.09 µM |  |
| COC(=O)Nc1nc2ccc(C(=O)c3ccc[nH]3)cc2[nH]1 |  | > 100 µM |  | 12.7 µM |  | > 100 µM |  | > 100 µM |  | > 100 µM |  | > 100 µM |  |  | > 54.7 µM |  | > 100 µM |  |
| CC(C)=CC(=O)CC(=O)C(=O)Nc1ccc(C)c(C)c1 |  | > 100 µM |  | > 100 µM |  | > 100 µM |  | > 100 µM |  |  |  | > 100 µM |  |  | > 100 µM |  | > 100 µM |  |
| COc1cc2c3c(n(C)c(=O)c2cc1OC)-c1cc2c(cc1/C3=C\CCCCN)OCO2 | 4410 nM | 17.1 µM |  |  | 25100 nM | > 100 µM | 1950 nM | 7.28 µM | 3.77 µM | 14.2 µM |  |  | 13200 nM | 27.3 µM | 71.9 µM | 6360 nM | 24.8 µM | 23.9 µM |
| CC(=O)[CH-]C(=O)c1ccccc1.CC(=O)[CH-]C(=O)c1ccccc1.CCN(CC)CC[O-].CCN(CC)CC[O-].Cl.[Ti+4] | 40100 nM | > 100 µM |  |  | 36400 nM | > 100 µM | 20000 nM | 59.6 µM | 38.8 µM | > 100 µM | 35.2 µM | > 100 µM | 27900 nM | > 100 µM | 69.5 µM | 45900 nM | > 100 µM | 23.7 µM |
| CC(=O)O[C@H]1C(=O)[C@@]2(C)C([C@H](OC(=O)c3ccccc3)[C@]3(O)C[C@H](OC(=O)[C@H](O)[C@H](NC(=O)c4ccccc4)c4ccc(Cl)cc4)C(C)=C1C3(C)C)C1(OC(C)=O)CO[C@@H]1C[C@@H]2O (some centres not stated) |  | 23.9 µM |  | 12.9 µM | 58.3 nM | > 100 µM |  |  |  | 61.9 µM |  |  |  | 1.76 µM | 45.3 µM |  | 18.3 µM |  |
| Cc1ccc(-c2c(C#N)c(N)nc(N3CCOCC3)c2C#N)o1 |  |  | 36200 nM | > 100 µM |  |  | 46600 nM | > 100 µM | 72.6 µM | > 100 µM | > 100 µM | > 100 µM | 40500 nM | > 100 µM |  | > 100000 nM | > 100 µM |  |
| OB([O][Hg][c]1ccccc1)[O][Hg][c]1ccccc1 | 639 nM | 2.01 µM |  |  | 141 nM | 0.354 µM | 1590 nM | 3.04 µM | 0.522 µM | 3.53 µM | 1.06 µM | 2.5 µM | 538 nM | 1.85 µM | 2.84 µM | 191 nM | 0.5 µM | 1.46 µM |
| COc1ccc(/C(=C/c2cc(OC)c(OC)c(OC)c2)[N+](=O)[O-])cc1 |  |  |  |  | 1630 nM | 3.54 µM | 1890 nM | 3.99 µM | 2.67 µM | 8.12 µM | 1.79 µM | 3.64 µM | 1690 nM | 3.11 µM | 3.64 µM | 1710 nM | 3.91 µM | 1.68 µM |
| C1CCC([PH+](C2CCCCC2)C2CCCCC2[PH+](C2CCCCC2)C2CCCCC2)CC1.[Au].[CH-]1CCCCC1C1CCCC[N-]1 (configuration not stated) |  |  | 426 nM | > 100 µM | 1500 nM | 3.03 µM |  |  | 0.278 µM | > 100 µM |  |  | 179 nM | 0.332 µM |  |  |  |  |
| COc1cc2cc(Oc3ccc(NC(=O)Nc4cccc(C(F)(F)F)c4)cc3)c(C)nc2cc1OCCN1CCCCC1 | 1400 nM | 2.82 µM |  |  |  |  | 1720 nM | 3.3 µM |  |  |  |  | 1710 nM | 3.16 µM | 3.1 µM | 1980 nM | 3.6 µM | 1.66 µM |
| ClC(=Nc1cccc2ccccc12)N(c1ccccc1)c1ccccc1 |  | > 100 µM |  |  |  | > 100 µM |  | > 100 µM |  |  |  |  |  |  | > 100 µM |  | > 100 µM |  |
| O=c1c(Cl)nnc2sc3ccccc3n12 | 813 nM | 6.9 µM |  |  | 16500 nM | 54.3 µM | 32300 nM | > 100 µM | 40.8 µM | > 100 µM | 51.1 µM | > 100 µM | 37300 nM | > 100 µM | > 100 µM | 47700 nM | > 100 µM | 77.5 µM |
| CC12OC(C(=O)C13CC3)C1C(=O)c3ccccc3C(=O)C12 (configuration not stated) | 21600 nM | 38.5 µM | 13900 nM | 42.5 µM |  |  | 19900 nM | 52 µM | 20.3 µM | 48.4 µM | 19.2 µM | 46.2 µM |  |  | > 100 µM |  |  | 36.4 µM |
